In US7989438B2, “Therapeutic compounds” (Istituto di Ricerche di Biologia Molecolare P. Angeletti SpA, priority 2007, dated 2011):
Read-outs that look alike come from different tables or passages of the source.

Test system: HCV subgenomic replication
Experiment: Cell based HCV replication assay (subgenomic replicon in Huh-7 cells, NS3 Cell-ELISA)
Settings: activity ranges
From the text: Cell clones that stably maintain subgenomic HCV replicon were obtained by transfecting Huh-7 cells with an RNA replicon identical to I377neo/NS3-3′/wt described by Lohmann et al. (1999) (EMBL-genbank No. AJ242652), followed by selection with neomycin sulfate (G418). Viral replication was monitored by measuring the expression of the NS3 protein by an ELISA assay performed directly on cells grown in 96 wells microtiter plates (Cell-ELISA) using the anti-NS3 monoclonal antibody 10E5/24 (as described in published International application WO 02/59321). Cells were seeded into 96 well plates at a density of 10^4 cells per well in a final volume of 0.1 ml of DMEM/10% FCS. Two hours after plating, 50 μl of DMEM/10% FCS containing a 3× concentration of inhibitor were added, cells were incubated for 96 hours and then fixed for 10 minutes with ice-cold isopropanol. Each condition was tested in duplicate and average absorbance values were used for calculations. The cells were washed twice with PBS, blocked with 5% non-fat dry milk in PBS+0.1% Triton X100+0.02% SDS (PBSTS) and then incubated o/n at 4° C. with the 10E5/24 mab diluted in Milk/PBSTS. After washing 5 times with PBSTS, the cells were incubated for 3 hours at room temperature with Fc specific anti-mouse IgG conjugated to alkaline phosphatase (Sigma), diluted in Milk/PBSTS. After washing again as above, the reaction was developed with p-Nitrophenyl phosphate disodium substrate (Sigma) and the absorbance at 405/620 nm read at intervals. For calculations, we used data sets where samples incubated without inhibitors had absorbance values comprised between 1 and 1.5. The inhibitor concentration that reduced by 50% the expression of NS3 (IC50) was calculated by fitting the data to the Hill equation, Fraction inhibition=1−(Ai−b)/(A0−b)=[I]^n/([I]^n+[…]) where: • Ai=absorbance value of HBI10 cells supplemented with the indicated inhibitor concentration. • A0=absorbance value of HBI10 cells incubated without inhibitor. • b=absorbance value of Huh-7 cells plated at the same density in the same microtiter plates and incubated without inhibitor. • n=Hill coefficient.

[1] = Table A, Huh-7 replicon cells, 96 hours, read-out: IC50 (nM), Inhibition of HCV subgenomic replication
[2] = Table 4, various macrocycles, read-out: IC50* (nM), Inhibition of HCV subgenomic replication
[3] = Table 2, various macrocycles, read-out: IC50* (nM), Inhibition of HCV subgenomic replication

`CN1CCOCCN(C)S(=O)(=O)NC(=O)c2ccc3c(C4CCCCC4)c4n(c3c2)C[C@@H]1COc1ccccc1-4` [Compound A20, (7R)-14-cyclohexyl-18,24-dimethyl-7,8-dihydro-6H-7,11-(epiminoethanooxyethanoiminothioiminomethano)indolo[1,2-e][1,5]benzoxazocin-15-one 17,17-dioxide] gave an IC50 [1] of 25 to 150 nM.
Molecule `CCN1CCN(C)[C@H]2COc3c(C)cccc3-c3c(C4CCCCC4)c4ccc(cc4n3C2)C(=O)NS(=O)(=O)N(C)CC1` [Compound A19, (7R)-14-cyclohexyl-21-ethyl-4,18,24-trimethyl-7,8-dihydro-6H-7,11-(epiminoethanoiminoethanoiminothioiminomethano)indolo[1,2-e][1,5]benzoxazocin-15-one 17,17-dioxide] has an IC50 [1] of less than 25 nM.
`CN1C2CCN(CCC3COc4ccccc4-c4c(C5CCCCC5)c5ccc(cc5n4C3)C(=O)NS1(=O)=O)CC2` (centres unmarked) [Example 504, 30-cyclohexyl-23-methyl-6-oxa-22-thia-1,14,21,23-tetraazahexacyclo[22.2.2.1^4,14.1^13,16.1^15,19.0^7,12]hentriaconta-7,9,11,13(30),15(29),16,18-heptaen-20-one 22,22-dioxide] showed an IC50 (Hepatitis C virus, Huh-7, Table 5, various macrocycles, read-out: IC50* (nM), Inhibition of HCV subgenomic replication) of 25 to 150 nM.
For `CCN1CCN(C)C2COc3c(F)cccc3-c3c(C4CCCCC4)c4ccc(cc4n3C2)C(=O)NS(=O)(=O)N(C)CC1` [Example 404, (7R)-14-cyclohexyl-21-ethyl-4-fluoro-18,24-dimethyl-7,8-dihydro-6H-7,11-(epiminoethanoiminoethanoiminothioiminomethano)-indolo[1,2-e][1,5]benzoxazocin-15-one 17,17-dioxide], the IC50 [2] was less than 25 nM.
Molecule `CN1CCCC2COc3ccccc3-c3c(C4CCCCC4)c4ccc(cc4n3C2)C(=O)NS(=O)(=O)N(C)CC1` [Compound A25, (7R)-14-cyclohexyl-18,21-dimethyl-7,8-dihydro-6H-7,11-(propanoiminoethanoiminothioiminomethano)indolo[1,2-e][1,5]benzoxazocin-15-one 17,17-dioxide] has an IC50 [1] of less than 25 nM.
`CN1CCOC2COc3ccccc3-c3c(C4CCCCC4)c4ccc(cc4n3C2)C(=O)NS(=O)(=O)N(C)CC1` [Compound A7, (7S)-14-cyclohexyl-18,21-dimethyl-7,8-dihydro-6H-7,11-(epoxyethanoiminoethanoiminothioiminomethano)indolo[1,2-e][1,5]benzoxazocin-15-one 17,17-dioxide] was tested, and the IC50 [1] was 25 to 150 nM.
`CCN1CCN(C)C2COc3ccccc3-c3c(C4CCCCC4)c4ccc(cc4n3C2)C(=O)NS(=O)(=O)N(C)CC1` [Compound A3, (7R)-14-cyclohexyl-21-ethyl-18,24-dimethyl-7,8-dihydro-6H-7,11-(epiminoethanoiminoethanoiminothioiminomethano)indolo[1,2-e][1,5]benzoxazocin-15-one 17,17-dioxide] was tested, and the IC50 [1] was less than 25 nM.
`CCCc1cccc2c1OCC1Cn3c-2c(C2CCCCC2)c2ccc(cc23)C(=O)NS(=O)(=O)N(C)CCN(C(C)C)CCN1C` [Example 213, (7R)-14-cyclohexyl-21-isopropyl-18,24-dimethyl-4-propyl-7,8-dihydro-6H-7,11-(epiminoethanoiminoethanoiminothioiminomethano)-indolo[1,2-e][1,5]benzoxazocin-15-one 17,17-dioxide] gave an IC50 [3] of 25 to 150 nM.
`CCN1CCN(CCO)[C@H]2COc3cc(C)ccc3-c3c(C4CCCCC4)c4ccc(cc4n3C2)C(=O)NS(=O)(=O)N(C)CC1` [Example 214, (7R)-14-cyclohexyl-21-ethyl-24-(2-hydroxyethyl)-3,18-dimethyl-7,8-dihydro-6H-7,11-(epiminoethanoiminoethanoiminothioiminomethano)-indolo[1,2-e][1,5]benzoxazocin-15-one 17,17-dioxide] was tested, and the IC50 [3] was less than 25 nM.
Molecule `O=C1NS(=O)(=O)N2CCN(CCN3CC4(COc5ccccc5-c5c(C6CCCCC6)c6ccc1cc6n5C4)C3)CC2` [Compound A23, 31-cyclohexyl-8-oxa-24-thia-1,4,16,23,25-pentaazaheptacyclo[23.2.2.1^4,6.1^6,16.1^15,18.1^17,21.0^9,14]tritriaconta-9,11,13,15(31),17(30),18,20-heptaen-22-one 24,24-dioxide] has an IC50 (Hepatitis C virus, Table A, Huh-7 replicon cells, 96 hours, read-out: IC50 (nM), Inhibition of HCV subgenomic replication) of 25 to 150 nM.
Molecule `CN1C2CCN(CCN(C)S(=O)(=O)NC(=O)c3ccc4c(C5CCCCC5)c5n(c4c3)C[C@@H]1COc1ccccc1-5)C2` [Example 301, (18R)-29-cyclohexyl-10,17-dimethyl-20-oxa-9-thia-1,8,10,13,17-pentaazahexacyclo[16.9.1.1^2,6.1^3,27.1^13,16.0^21,26]hentriaconta-2(31),3,5,21,23,25,27(29)-heptaen-7-one 9,9-dioxide] has an IC50 (Hepatitis C virus, Huh-7, Table 3, various macrocycles, read-out: IC50* (nM), Inhibition of HCV subgenomic replication) of less than 25 nM.
Molecule `CN1CCN(Cc2ccccc2)CCN(C)S(=O)(=O)NC(=O)c2ccc3c(C4CCCCC4)c4n(c3c2)CC1Cc1ccccc1-4` (centres unmarked) [Example 201, 20-benzyl-13-cyclohexyl-17,23-dimethyl-6,7-dihydro-5H-6,10-(epiminoethanoiminoethanoiminothioiminomethano)-indolo[2,1-a][2]benzazepin-14-one 16,16-dioxide] has an IC50 [3] greater than 500 nM.
Work on `COc1cccc2c1OCC1Cn3c-2c(C2CCCCC2)c2ccc(cc23)C(=O)NS(=O)(=O)N(C)CCN(C)CCN1C` [Example 412, (7R)-14-cyclohexyl-4-methoxy-18,21,24-trimethyl-7,8-dihydro-6H-7,11-(epiminoethanoiminoethanoiminothioiminomethano)-indolo[1,2-e][1,5]benzoxazocin-15-one 17,17-dioxide] yielded an IC50 [2] of less than 25 nM.
Molecule `Cc1ccc2c(c1)OCC1Cn3c-2c(C2CCCCC2)c2ccc(cc23)C(=O)NS(=O)(=O)N(C)CCN(C)CCN1C` [Example 216, (7R)-14-cyclohexyl-3,18,21,24-tetramethyl-7,8-dihydro-6H-7,11-(epiminoethanoiminoethanoiminothioiminomethano)-indolo[1,2-e][1,5]benzoxazocin-15-one 17,17-dioxide] has an IC50 [3] of less than 25 nM.
Work on `CN1CCCN(C)S(=O)(=O)NC(=O)c2ccc3c(C4CCCCC4)c4n(c3c2)CC(CC1)COc1ccccc1-4` (single isomer, unassigned; (+)) [Compound A13, (+)-14-cyclohexyl-18,22-dimethyl-7,8-dihydro-6H-7,11-(ethanoiminopropanoiminothioiminomethano)indolo[1,2-e][1,5]benzoxazocin-15-one 17,17-dioxide] yielded an IC50 [1] of 25 to 150 nM.
`CCCc1cccc2c1OC[C@H]1Cn3c-2c(C2CCCCC2)c2ccc(cc23)C(=O)NS(=O)(=O)N(C)CCN(CC)CCN1C` [Compound A22, (7R)-14-cyclohexyl-21-ethyl-18,24-dimethyl-4-propyl-7,8-dihydro-6H-7,11-(epiminoethanoiminoethanoiminothioiminomethano)indolo[1,2-e][1,5]benzoxazocin-15-one 17,17-dioxide] was tested, and the IC50 [1] was 25 to 150 nM.
Molecule `CN1CCN(C)C2COc3cc(F)ccc3-c3c(C4CCCCC4)c4ccc(cc4n3C2)C(=O)NS(=O)(=O)N(C)CC1` [Compound A11, (7R)-14-cyclohexyl-3-fluoro-18,21,24-trimethyl-7,8-dihydro-6H-7,11-(epiminoethanoiminoethanoiminothioiminomethano)indolo[1,2-e][1,5]benzoxazocin-15-one 17,17-dioxide] has an IC50 [1] of less than 25 nM.
Molecule `CN1CCN(C)[C@H]2COc3ccccc3-c3c(C4CCCC4)c4ccc(cc4n3C2)C(=O)NS(=O)(=O)N(C)CC1` [Example 518, (7R)-14-cyclopentyl-18,21,24-trimethyl-7,8-dihydro-6H-7,11-(epiminoethanoiminoethanoiminothioiminomethano)-indolo[1,2-e][1,5]benzoxazocin-15-one 17,17-dioxide] has an IC50 (Table 5, various macrocycles, read-out: IC50* (nM), Inhibition of HCV subgenomic replication) of less than 25 nM.
`CN(C)CCN1CCN(C)C2COc3ccccc3-c3c(C4CCCCC4)c4ccc(cc4n3C2)C(=O)NS(=O)(=O)N(C)CC1` [Example 220, (7R)-14-cyclohexyl-21-[2-(dimethylamino)ethyl]-18,24-dimethyl-7,8-dihydro-6H-7,11-(epiminoethanoiminoethanoiminothioiminomethano)-indolo[1,2-e][1,5]benzoxazocin-15-one 17,17-dioxide] gave an IC50 [3] of less than 25 nM.
For `CN1CCCCN(C)S(=O)(=O)NC(=O)c2ccc3c(C4CCCCC4F)c4n(c3c2)CC(COc2ccccc2-4)C1` (single isomer, unassigned) [Compound A16, (7R,S)-14-[(1R,2S) or (1S,2R)-2-fluorocyclohexyl]-18,23-dimethyl-7,8-dihydro-6H-11,7-(methanoiminothioiminobutanoiminomethano)indolo[1,2-e][1,5]benzoxazocin-15-one 17,17-dioxide], the IC50 [1] was 25 to 150 nM.
